Test results taken from US20230000869A1, “NOVEL ALK2 INHIBITORS AND METHODS FOR INHIBITING BMP SIGNALING” (The Brigham and Women's Hospital, Inc., priority 2017, published 2023).

What was measured:
TGFβ = assay: Luciferase reporter gene assay for TGFβ activity (HEK293T SBE-Luc SMAD2/3 reporter, TGFβ agonist); assay type: cell-based; settings: Homo sapiens, HEK-293T, TGFβ 5 ng/mL
Description: (§1) All cell lines were cultured in DMEM, supplemented with […] and 1% Pen/Strep. All media reagents were obtained from Gibco. BMP6, BMP9, and TGFβ were obtained from R&D Systems. C2C12-BRE and HEK293T-SBE were kept in selection with 400 ug/mL G418 from Invivogen.
(§2) In this reporter gene cell based ALK2 and TGFβ assay, the C2C12 cell line was employed for the measurement of ALK2 activity, using a BRE-Luc SMAD1/5/8 reporter and BMP6 as the agonist. The HEK293T cell line was employed to measure TGFβ activity, using a SBE-Luc SMAD2/3 reporter and TGFβ as the agonist. Luciferase reporter assays were read using Promega Steady-Glo Luciferase Assay System.
(§3) Cells were plated in 96 well white clear bottom assay plates at 10 k cells/well for C2C12-BRE, 15 k cells/well for HEK293-SBE in DMEM containing 2% FBS 1% P/S. Cells were given a minimum of 4 hours in incubator at 37° C./5% CO2 to adhere prior to further treatment. Compounds were diluted in DMSO to a 10-point dilution curve and added to the plate to reach the following final concentrations: 10000, 3000, 1000, 300, 100, and 30 nM in the HEK293-SBE assay and 1000, 300, 100, 30, 10, 3, 1, 0.3 nM in the C2C12-BRE assay. Negative and positive control wells received 2 μL DMSO as vehicle treatment. Plates were returned to incubator for 45 minutes and then BMP6 and TGFB were added to a final concentration of 50 ng/mL and 5 ng/mL, respectively. Plates were returned to the incubator and left overnight. After a minimum of 18 hours post BMP6/TGFβ addition, the plates were read using Promega Steady-Glo Luciferase Assay System. A 1:1 mixture of prepared steady-glo and phenol free DMEM was prepared, and 50 μL/well was added to the assay plates whose media had been flicked off. Plates were given 10 minutes post steady-glo addition before luminescence was read on a Spectramax M5e microplate reader. Negative control wells were averaged and subtracted from all other wells on the plate. Inhibition was calculated as the percent of signal loss compared to the averaged positive control wells.

ALK2 = target: T1, ALK2 (Mus musculus, UniProt P37172); assay: Luciferase reporter gene assay for ALK2 activity (C2C12 BRE-Luc SMAD1/5/8 reporter, BMP6 agonist); assay type: cell-based; settings: BMP6 50 ng/mL
T1 construct: endogenous in cells; host or cells: C2C12-BRE (BRE-Luc reporter line, G418 selection)
T1 sequence (P37172 21-509): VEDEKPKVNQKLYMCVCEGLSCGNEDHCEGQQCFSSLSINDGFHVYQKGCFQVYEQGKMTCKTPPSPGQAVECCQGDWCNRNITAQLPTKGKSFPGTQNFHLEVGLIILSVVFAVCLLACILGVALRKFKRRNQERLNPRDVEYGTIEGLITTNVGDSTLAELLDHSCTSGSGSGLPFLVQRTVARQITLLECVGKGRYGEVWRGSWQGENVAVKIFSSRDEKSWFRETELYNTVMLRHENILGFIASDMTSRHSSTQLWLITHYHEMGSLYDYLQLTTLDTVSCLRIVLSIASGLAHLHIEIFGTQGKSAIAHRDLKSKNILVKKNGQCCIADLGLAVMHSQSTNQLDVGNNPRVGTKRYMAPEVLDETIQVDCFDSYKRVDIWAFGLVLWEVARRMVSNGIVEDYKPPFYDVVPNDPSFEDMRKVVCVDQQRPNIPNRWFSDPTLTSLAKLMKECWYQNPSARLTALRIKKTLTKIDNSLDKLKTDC
Description: as §1, §2, §3

Row | Structure (SMILES) | IC50 (TGFβ) | IC50 (ALK2)
1 | [2H]C([2H])([2H])c1ccc2nccc(-c3cnn4cc(N5CCC(N6CCN(C)CC6)CC5)cnc34)c2c1 [Compound 320] | 605 nM | 27 nM
2 | Cc1cc(-c2cnn3cc(N4CCC(N5CCN(C)CC5)CC4)cc(OC4CCOCC4)c23)c2ccccc2n1 [Compound 223] | > 3000 nM | 272 nM
3 | CN1CCN(C2CCN(c3cnc4c(-c5ccnc6ccsc56)cnn4c3)CC2)CC1 [Compound 248] | 2880 nM | 57 nM
4 | Cc1ccc2nccc(-c3cnn4cc(N5CCC(N6CCOCC6)CC5)cnc34)c2c1 [Compound 341] | 771 nM | 15 nM
5 | Cc1cccc2c(-c3cnn4cc(N5CCC(N6CCN(C)CC6)CC5)cnc34)ccnc12 [Compound 270] | > 3000 nM | 558 nM
6 | COc1cc2c(-c3c(N)nn4cc(N5CCC(N6CCN(C)CC6)CC5)cnc34)ccnc2cc1F [Compound 214, 3-(7-fluoro-6-methoxy-4-quinolyl)-6-[4-(4-methylpiperazin-1-yl)-1-piperidyl]pyrazolo[1,5-a]pyrimidin-2-amine] | > 1000 nM | > 1000 nM
7 | CCOc1ccc2nccc(-c3cnn4cc(N5CCC(N6CCN(C)CC6)CC5)cnc34)c2c1 [Compound 21] | 1280 nM | 27 nM
8 | CN1CCN(C2CCN(c3cnc4c(-c5ccnc6ccc(N(C)C)cc56)cnn4c3)CC2)CC1 [Compound 280] | > 2000 nM | 26 nM
9 | CNC(=O)c1cc(-c2cnn3cc(N4CCC(N5CCN(C)CC5)CC4)cnc23)ccn1 [Compound 258] | 964 nM | 197 nM
10 | COc1cc2c(-c3cnn4cc(N5CCC(N6CC7CCC(C6)N7)CC5)cnc34)ccnc2cc1F [Compound 52] | 358 nM | 29 nM
11 | CN1CCN(C2CCN(c3cnc4c(-c5ccnc6cc(C(F)(F)F)ccc56)cnn4c3)CC2)CC1 [Compound 257] | > 1000 nM | > 1000 nM
12 | CN1CCN(C2CCN(c3cnc4c(-c5cccc(P(C)(C)=O)c5)cnn4c3)CC2)CC1 [Compound 64] | > 3000 nM | 28 nM
13 | COc1cc2c(-c3cnc4cc(N5CCC(N6CCN(C)CC6)CC5)ccn34)ccnc2cc1F [Compound 351] | > 3000 nM | 372 nM
14 | CN1CCN(C2CCN(c3cnc4c(-c5cnn(C)c5)cnn4c3)CC2)CC1 [Compound 246] | > 1000 nM | > 1000 nM
15 | CN1CCN(C2CCN(c3cnc4c(-c5ccnc6ccc(Cl)c(F)c56)cnn4c3)CC2)CC1 [Compound 267] | > 2000 nM | 162 nM
16 | COc1cc2c(-c3cnn4cc(N5CCC(N6CCN(C)C(C)C6)CC5)cnc34)ccnc2cc1F (centres unmarked) [Compound 41] | 1230 nM | 236 nM
17 | COc1cc2c(-c3cnn4cc(N5CCC(N6CCN(C)CC6)CC5)cc(OC5CCOCC5)c34)ccnc2cc1F [Compound 224] | > 3000 nM | > 1000 nM
18 | CN1CCN(C2CCN(c3cnc4c(-c5ccnc(N6CCOCC6)c5)cnn4c3)CC2)CC1 [Compound 219] | > 3000 nM | 381 nM
19 | COc1cc2c(-c3cnn4cc(N5CCC(N6C[C@H]7C[C@@H]6CN7)CC5)cnc34)ccnc2cc1F [Compound 54] | 539 nM | 71 nM
20 | [2H]C([2H])([2H])Oc1cc2c(-c3cnn4cc(N5CCC(N6CCN(C)CC6)CC5)cnc34)ccnc2cc1F [Compound 346] | 686 nM | 18 nM
21 | CN1CCN(C2CCN(c3cc(OC4CCOCC4)c4c(-c5cn[nH]c5)cnn4c3)CC2)CC1 [Compound 225] | > 3000 nM | > 1000 nM
22 | CC(=O)Nc1ccc2nccc(-c3cnn4cc(N5CCC(N6CCN(C)CC6)CC5)cnc34)c2c1 [Compound 281] | > 3000 nM | > 3000 nM
23 | Cc1cc(-c2cnn3cc(N4CCC(N5CCN(C)CC5)CC4)cnc23)c2cccc(C(F)(F)F)c2n1 [Compound 268] | > 1000 nM | 98 nM

The remaining lines, values ahead:

Row | IC50 (TGFβ) | IC50 (ALK2) | Structure (SMILES)
24 | 176 nM | 29 nM | CN1CCN(C2CCN(c3cnc4c(-c5ccnc6cc7c(cc56)OCO7)cnn4c3)CC2)CC1 [Compound 18]
25 | 370 nM | 57 nM | COc1cc2c(-c3cnn4cc(N5CCC(N)CC5)cnc34)ccnc2cc1F [Compound 186]
26 | 209 nM | 26 nM | CN1CCN(C2CCN(c3cnc4c(-c5ccnc6ccc(F)cc56)cnn4c3)CC2)CC1 [Compound 251]
27 | 126 nM | 935 nM | Cc1cc(-c2cnn3cc(N4CCN(C)CC4)cnc23)c2ccccc2n1 [Compound 196]
28 | 62 nM | 15 nM | COc1cc2c(-c3cnn4cc(N5CC(c6ccncc6)C5)cnc34)ccnc2cc1F [Compound 209]
29 | 32 nM | 37 nM | Cc1cc(-c2cnn3cc(N4CCC(N)CC4)cnc23)c2ccccc2n1 [Compound 187]
30 | 277 nM | 6 nM | COc1ccc2nccc(-c3cnn4cc(N5CC(N6CCN(C)CC6)C5)cnc34)c2c1 [Compound 221]
31 | 27 nM | 8 nM | COc1cc(F)c2nccc(-c3cnn4cc(N5CC(N6CCN(C)CC6)C5)cnc34)c2c1 [Compound 314]
32 | 30 nM | 23 nM | Cc1cc(-c2cnn3cc(N4CC(N5CCN(C)CC5)C4)cnc23)c2ccc(F)c(F)c2n1 [Compound 315]
33 | < 1 nM | 9 nM | Cc1cc(-c2cnn3cc(N4CC5(CC(N(C)C)C5)C4)cnc23)c2ccccc2n1 [Compound 337]
34 | 38 nM | 21 nM | Cc1cc(-c2cnn3cc(N4CC(N5CCN(C)CC5)C4)cnc23)c2ccc(F)cc2n1 [Compound 310]
35 | 306 nM | 175 nM | CN1CCN(C2CCN(c3cnc4c(-c5cc(C(F)F)nc6ccccc56)cnn4c3)CC2)CC1 [Compound 238]
36 | 283 nM | 300 nM | Cc1cc(-c2cnn3cc(N4CCN(CC(C)(C)O)CC4)cnc23)c2ccccc2n1 [Compound 198]
37 | 104 nM | 10 nM | CN1CCN(C2CCN(c3cnc4c(-c5ccnc6cc(F)ccc56)cnn4c3)CC2)CC1 [Compound 256]
38 | 12 nM | 85 nM | CN1CCN(C2CCN(c3cnc4c(-c5ccnc6ccc(OC(F)(F)F)cc56)cnn4c3)CC2)CC1 [Compound 252]
39 | 229 nM | 12 nM | CN1CCN(C2CCN(c3cnc4c(-c5ccnc6c(F)cccc56)cnn4c3)CC2)CC1 [Compound 260]
40 | 20 nM | 8 nM | COc1cc2c(-c3cnn4cc(N5CCC(N6CCOCC6)CC5)cnc34)ccnc2cc1F [Compound 16]
41 | 37 nM | 25 nM | Cn1cc(-c2cnn3cc(N4CCC(N5CCOCC5)CC4)cnc23)c2ccccc2c1=O [Compound 32]
42 | 483 nM | 76 nM | COc1cc2c(-c3cnn4cc(N5CCC(N6CCN(C)CC6)C(F)C5)cnc34)ccnc2cc1F (centres unmarked) [Compound 47]
43 | 261 nM | 56 nM | NC(=O)c1cccc2c(-c3cnn4cc(N5CCC(N6CCOCC6)CC5)cnc34)cccc12 [Compound 13]
44 | 248 nM | 72 nM | COc1cc2c(-c3cnn4cc(N5CCC(N6CCN(C)CC6)CC5)cnc34)ccnc2cc1Cl [Compound 28]
45 | 267 nM | 975 nM | CN1CCN(C2CCN(c3cnc4c(-c5cc(C(F)(F)F)nc6ccccc56)cnn4c3)CC2)CC1 [Compound 236]
46 | 410 nM | 60 nM | COc1cc2c(-c3cnn4cc(N5CCC(N6CCC(C)(N)CC6)CC5)cnc34)ccnc2cc1F [Compound 51]
47 | 454 nM | 108 nM | COc1cc2c(-c3cnn4cc(N5CCC(N6CCS(=O)(=O)CC6)CC5)cnc34)ccnc2cc1F [Compound 46]
48 | 23 nM | 36 nM | CN1CCN(C2CCN(c3cnc4c(-c5ccc(C(N)=O)c6ccccc56)cnn4c3)CC2)CC1 [Compound 9]
49 | 449 nM | 118 nM | COc1cc2c(-c3cnn4cc(N5CC(N6CCOCC6)C5)cnc34)ccnc2cc1F [Compound 193]
